Results: US9096624B2 (OSI Pharmaceuticals, LLC, priority 2009, dated 2015)

Experiments:
FAK [1] = target: T1, FAK (Homo sapiens, UniProt Q05397); assay: Cell-based capture ELISA for inhibition of FAK autophosphorylation [pY397] in MiaPaCa2 cells
Method: Cell-Based Assays for Inhibition of FAK Autophosphorylation: MiaPaCa2 and U87MG
ELISA kit from Invitrogen (KHO0441).
Reagents Provided in Biosource FAK [pY397]
The cells were then suspended in cell assay medium.

FAK [2] = target: T1, FAK; assay: Biochemical HTRF (FRET) assay of FAK kinase activity; conditions: 100 uM ATP; biotinylated PGT substrate; read-out: Mean FAK Biochem FRET IC50 (100 uM ATP)
Method: Biochemical HTRF (FRET) Assay Protocol
The ability of compounds to inhibit the kinase activity of recombinant FAK enzyme was determined by a HTRF (FRET) assay using Biotinylated PGT (B*PGT) as a peptide substrate. […] The reaction is stopped after 1 h and phosphotyrosine content of Biotin*PGT is measured using anti-phosphotyrosine specific Mab label with Eu3+-cryptate (Cisbio) and XL665 labeled streptavidin (Cisbio) by Homogeneous Time-Resolved Fluorescence (HTRF) method.
The Stock Reagents used are as follows:
Enzyme Buffer Reaction Buffer plus 0.03% BSA.
Development Buffer: 1 part 200 mM EDTA/50 mM Tris-HCl pH 7.4; 2 parts 1M KF; 0.07% BSA.
Assay Protocol: The compounds were serially diluted from 10 uM to […] (1:5 dil, 10 points) in kinase buffer (1×) containing 3% DMSO and added 5 uL to each well of a 384-well plate except negative and positive control wells. Only DMSO was added to positive and negative control wells. For negative control wells, no ATP was added but only 5 uL of B*PGT was added. B*PGT (final conc 7.5 ng/well) and ATP (final conc 100 uM) was added in 5 uL to all wells except negative control wells. Reaction was started by adding FAK enzyme (final conc 0.2 ng/well) in 5 ul of enzyme buffer per well and incubated at RT for 1 h. Phospho-tyrosine content of B*BGT was detected by adding PT66-Cryptate (1:100 dil) and XL665 conjugated streptavidin (1:100 dil) to each well in 7.5 uL development buffer and incubating for 1 h at RT. The plate was read on Victor machine

FAK [3] = target: T1, FAK; assay: biochemical
FAK [4] = target: T1, FAK; assay: Cell-based capture ELISA for inhibition of FAK autophosphorylation [pY397] in U87MG cells
[5] = MIA-PaCa2 cells on fibronectin, 2 h, no plasma, read-out: Mean FAK Cell Mechanistic IC50 MIA-PaCa2
[6] = MIA-PaCa2 cells, + 50% human plasma, read-out: Mean FAK Cell Mechanistic IC50 + 50% hP MIA-PaCa2
[7] = MIA-PaCa2 cells, + 50% mouse plasma (Table 2), read-out: Mean FAK Cell Mechanistic IC50 + 50% mP MIA-PaCa2
[8] = MIA-PaCa2 cells, + 50% mouse plasma (Table 3), read-out: Mean FAK Cell Mechanistic IC50 + 50% mP MIA-PaCa2
[9] = Mean FAK Cell Mechanistic IC50 + 50% mP U87MG, + 50% mouse plasma

T1 sequence (Q05397 whole entry): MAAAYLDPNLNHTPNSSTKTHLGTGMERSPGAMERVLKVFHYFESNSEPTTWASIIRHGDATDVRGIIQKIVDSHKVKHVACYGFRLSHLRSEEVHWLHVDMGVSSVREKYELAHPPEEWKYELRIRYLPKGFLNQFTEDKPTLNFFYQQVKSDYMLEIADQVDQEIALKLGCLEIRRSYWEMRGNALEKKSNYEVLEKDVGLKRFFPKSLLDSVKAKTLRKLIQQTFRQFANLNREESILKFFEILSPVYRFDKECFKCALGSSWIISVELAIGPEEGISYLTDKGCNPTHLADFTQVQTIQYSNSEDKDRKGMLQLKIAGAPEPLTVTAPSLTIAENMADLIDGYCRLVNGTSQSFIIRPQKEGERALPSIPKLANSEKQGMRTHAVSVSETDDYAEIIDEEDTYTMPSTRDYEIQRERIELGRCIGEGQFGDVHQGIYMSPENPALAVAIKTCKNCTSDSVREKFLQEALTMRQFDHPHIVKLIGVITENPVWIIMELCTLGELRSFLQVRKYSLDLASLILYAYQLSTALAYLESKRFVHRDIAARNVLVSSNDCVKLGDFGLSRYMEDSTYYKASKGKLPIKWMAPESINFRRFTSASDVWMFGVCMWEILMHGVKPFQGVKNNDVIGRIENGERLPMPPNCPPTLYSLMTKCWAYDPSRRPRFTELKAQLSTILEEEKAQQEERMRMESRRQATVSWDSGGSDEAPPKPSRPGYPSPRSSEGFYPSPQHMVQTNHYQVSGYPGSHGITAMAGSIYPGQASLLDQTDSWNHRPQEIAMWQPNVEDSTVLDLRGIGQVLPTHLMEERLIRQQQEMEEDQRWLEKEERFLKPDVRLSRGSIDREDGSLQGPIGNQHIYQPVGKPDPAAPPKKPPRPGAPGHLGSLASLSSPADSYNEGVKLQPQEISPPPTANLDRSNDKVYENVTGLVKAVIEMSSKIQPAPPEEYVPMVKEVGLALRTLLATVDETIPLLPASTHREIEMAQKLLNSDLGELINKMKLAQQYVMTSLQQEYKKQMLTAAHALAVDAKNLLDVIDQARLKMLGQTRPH

| IC50 (FAK [1]; [7]) | Structure (SMILES) | IC50 (FAK [1]; [5]) | IC50 (FAK [1]; [6]) | IC50 (FAK [2]) | IC50 (FAK [3]) | IC50 (FAK [1]; [8]) | IC50 (FAK [4]; [9]) | IC50 (FAK [4]; U87MG FAK Cell Mech IC50 +hP, + human plasma) | IC50 (FAK [4]; U87MG FAK Cell Mech IC50 +mP, + mouse plasma) |
| --- | --- | --- | --- | --- | --- | --- | --- | --- | --- |
| 1000 to 10000 nM | CN(c1ncccc1CNc1nc(Nc2ccc(CP(=O)(O)O)cc2)ncc1C(F)(F)F)S(C)(=O)=O [Example 41, [4-({4-[({2-[Methyl(methylsulfonyl)amino]pyridin-3-yl}methyl)amino]-5-(trifluoromethyl)pyrimidin-2-yl}amino)benzyl]phosphonic acid] | 1000 to 10000 nM | 1000 to 10000 nM | 1000 to 10000 nM | < 1000 nM | – | – | – | – |
| – | CCOP(=O)(OCC)C(C)c1ccc(Nc2ncc(C(F)(F)F)c(NCc3cccnc3N(C)S(C)(=O)=O)n2)cc1 (stereo not drawn) [Example 5, Diethyl {1-[4-({4-[({2-[methyl(methylsulfonyl)amino]pyridin-3-yl}methyl)amino]-5-(trifluoromethyl)pyrimidin-2-yl}amino)phenyl]ethyl}phosphonate] | < 1000 nM | < 1000 nM | < 1000 nM | – | – | – | – | – |
| – | CCOP(=O)(Cc1ccc(Nc2ncc(C(F)(F)F)c(Nc3cccc4c3C(=O)N(C)C4C)n2)c(OC)c1)OCC (stereo not drawn) [Example 158, Diethyl [4-({4-[(1,2-dimethyl-3-oxo-2,3-dihydro-1H-isoindol-4-yl)amino]-5-(trifluoromethyl)pyrimidin-2-yl}amino)-3-methoxybenzyl]phosphonate] | – | – | – | < 1000 nM | < 1000 nM | < 1000 nM | – | – |
| 1000 to 10000 nM | CC(C)OP(=O)(Cc1ccc(Nc2ncc(C(F)(F)F)c(NCc3cccnc3N(C)S(C)(=O)=O)n2)cc1)OC(C)C [Example 27, dipropan-2-yl [4-({4-[({2-[methyl(methylsulfonyl)amino]pyridin-3-yl}methyl)amino]-5-(trifluoromethyl)pyrimidin-2-yl}amino)benzyl]phosphonate] | 1000 to 10000 nM | 1000 to 10000 nM | 1000 to 10000 nM | – | – | – | – | – |
| – | CCOP(C)(=O)Cc1cccc(Nc2ncc(C(F)(F)F)c(NCc3cccnc3N(C)S(C)(=O)=O)n2)c1 (stereo not drawn) [Example 46, Ethyl methyl[3-({4-[({2-[methyl(methylsulfonyl)amino]pyridin-3-yl}methyl)amino]-5-(trifluoromethyl)pyrimidin-2-yl}amino)benzyl]phosphinate] | < 1000 nM | < 1000 nM | 1000 to 10000 nM | – | – | – | – | – |
| – | CNC(=O)c1ccccc1Nc1nc(Nc2ccc(CP(C)(=O)OCCOC)cc2OC)ncc1C(F)(F)F (stereo not drawn) [Example 216, 2-Methoxyethyl (3-methoxy-4-{[4-{[2-(methylcarbamoyl)phenyl]amino}-5-(trifluoromethyl)pyrimidin-2-yl]amino}benzyl)methylphosphinate] | – | – | – | < 1000 nM | < 1000 nM | < 1000 nM | – | – |
| – | CCOP(=O)(Cc1ccc(Nc2ncc(C(F)(F)F)c(Nc3ccc([C@H]4CC[C@H](O)CC4)c4c3C(=O)N(C)C4)n2)nc1)OCC [Example 309, Diethyl [(6-{[4-{[7-(trans-4-hydroxycyclohexyl)-2-methyl-3-oxo-2,3-dihydro-1H-isoindol-4-yl]amino}-5-(trifluoromethyl)pyrimidin-2-yl]amino}pyridin-3-yl)methyl]phosphonate] | – | – | – | < 1000 nM | < 1000 nM | < 1000 nM | – | – |
| – | CCCP(=O)(CCC)c1cccc(Nc2ncc(C(F)(F)F)c(Nc3ccc([C@H]4CC[C@H](O)CC4)c4c3C(=O)N(C)C4)n2)c1 [Example 171, 7-{[2-{[3-(Dipropylphosphoryl)phenyl]amino}-5-(trifluoromethyl)pyrimidin-4-yl]amino}-4-(trans-4-hydroxycyclohexyl)-2-methyl-2,3-dihydro-1H-isoindol-1-one] | – | – | – | < 1000 nM | < 1000 nM | < 1000 nM | – | – |
| – | CCOP(=O)(Cc1ccc(Nc2ncc(C(F)(F)F)c(Nc3ccc(C4CCC(N(C)CC)CC4)c4c3C(=O)N(C)C4)n2)c(OC)c1)OCC (stereo not drawn) [Example 236, Diethyl [4-({4-[(7-{4-[ethyl(methyl)amino]cyclohexyl}-2-methyl-3-oxo-2,3-dihydro-1H-isoindol-4-yl)amino]-5-(trifluoromethyl)pyrimidin-2-yl}amino)-3-methoxybenzyl]phosphonate] | – | – | – | < 1000 nM | < 1000 nM | < 1000 nM | – | – |
| – | CCOP(=O)(Cc1ccc(Nc2ncc(C(F)(F)F)c(Nc3ccc([C@H]4CC[C@H](O)CC4)cc3C(=O)NC)n2)cc1)OCC [Example 139, Diethyl (4-{[4-{[4-(trans-4-hydroxycyclohexyl)-2-(methylcarbamoyl)phenyl]amino}-5-(trifluoromethyl)pyrimidin-2-yl]amino}benzyl)phosphonate] | – | – | – | < 1000 nM | < 1000 nM | 1000 to 10000 nM | – | – |
| – | CCOP(=O)(Cc1ccc(Nc2ncc(C(F)(F)F)c(Nc3ccccc3C(=O)NC)n2)c(OC)c1F)OCC [Example 147, Diethyl (2-fluoro-3-methoxy-4-{[4-{[2-(methylcarbamoyl)phenyl]amino}-5-(trifluoromethyl)pyrimidin-2-yl]amino}benzyl)phosphonate] | – | – | – | < 1000 nM | < 1000 nM | < 1000 nM | – | – |
| – | CCOP(=O)(Cc1ccc(Nc2ncc(C(F)(F)F)c(Nc3ccc([C@H]4CC[C@H](O)CC4)cc3C(=O)NC)n2)c(OC)c1)OCC [Example 141, Diethyl (4-{[4-{[4-(trans-4-hydroxycyclohexyl)-2-(methylcarbamoyl)phenyl]amino}-5-(trifluoromethyl)pyrimidin-2-yl]amino}-3-methoxybenzyl)phosphonate] | – | – | – | < 1000 nM | < 1000 nM | < 1000 nM | – | – |
| – | CCOP(=O)(Cc1ccc(Nc2ncc(C(F)(F)F)c(Nc3ccccc3C(=O)NC)n2)c(OC)c1)OCC [Ex. 53, diethyl (3-methoxy-4-{[4-{[2-(methylcarbamoyl)phenyl]amino}-5-(trifluoromethyl)pyrimidin-2-yl]amino}benzyl)phosphonate] | < 1000 nM | < 1000 nM | – | < 1000 nM | – | – | 160 nM | 70 nM |
| – | CCOP(=O)(Cc1ccc(Nc2ncc(C(F)(F)F)c(Nc3cccc4[nH]cc(C)c(=O)c34)n2)c(OC)c1)OCC [Example 204, Diethyl [3-methoxy-4-({4-[(3-methyl-4-oxo-1,4-dihydroquinolin-5-yl)amino]-5-(trifluoromethyl)pyrimidin-2-yl}amino)benzyl]phosphonate] | – | – | – | < 1000 nM | < 1000 nM | < 1000 nM | – | – |
| – | CCOP(=O)(Cc1ccc(Nc2ncc(C(F)(F)F)c(Nc3ccc(-c4cnn(CCCO)c4)c4c3C(=O)N(C)C4)n2)cc1)OCC [Example 156, Diethyl (4-{[4-({7-[1-(3-hydroxypropyl)-1H-pyrazol-4-yl]-2-methyl-3-oxo-2,3-dihydro-1H-isoindol-4-yl}amino)-5-(trifluoromethyl)pyrimidin-2-yl]amino}benzyl)phosphonate] | – | – | – | < 1000 nM | < 1000 nM | < 1000 nM | – | – |
| – | CCOP(=O)(Cc1ccc(Nc2ncc(C(F)(F)F)c(Nc3cccnc3C(=O)NC)n2)c(OC)c1)OCC [Example 231, Diethyl (3-methoxy-4-{[4-{[2-(methylcarbamoyl)pyridin-3-yl]amino}-5-(trifluoromethyl)pyrimidin-2-yl]amino}benzyl)phosphonate] | – | – | – | < 1000 nM | < 1000 nM | < 1000 nM | – | – |
| – | CCOP(=O)(OCC)c1ccc(Nc2ncc(C(F)(F)F)c(NCc3cccnc3N(C)S(C)(=O)=O)n2)cc1 [Example 2, Diethyl [4-({4-[({2-[methyl(methylsulfonyl)amino]pyridin-3-yl}methyl)amino]-5-(trifluoromethyl)pyrimidin-2-yl}amino)phenyl]phosphonate] | – | – | 1000 to 10000 nM | – | – | – | – | – |
| – | CCOP(=O)(Cc1ccc(Nc2ncc(C(F)(F)F)c(Nc3ccc([C@H]4CC[C@H](O)CC4)c4c3C(=O)N(C)C4)n2)cn1)OCC [Example 260, Diethyl [(5-{[4-{[7-(trans-4-hydroxycyclohexyl)-2-methyl-3-oxo-2,3-dihydro-1H-isoindol-4-yl]amino}-5-(trifluoromethyl)pyrimidin-2-yl]amino}pyridin-2-yl)methyl]phosphonate] | – | – | – | < 1000 nM | < 1000 nM | < 1000 nM | – | – |
| – | CCOP(=O)(OCC)C(C)(C)c1ccc(Nc2ncc(C(F)(F)F)c(NCc3cccnc3N(C)S(C)(=O)=O)n2)cc1 [Example 7] | < 1000 nM | < 1000 nM | < 1000 nM | – | – | – | – | – |
